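How tested: cells in 96-well plates exposed to compound for 48 hours at five concentrations. GI50 = concentration required for 50% inhibition of growth.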 Activity calls are given as the source filed them. Cut-off read from the data, not from the text of the source: active = GI50 up to about 1.1 µM and inactive = higher.
Assays:
Test in all cases: NCI anticancer screen, dose series, 48 h
NCI-H460 = tested on: NCI-H460
HOP-62 = tested on: HOP-62
TK-10 = tested on: TK-10
ACHN = tested on: ACHN
RXF 393 = tested on: RXF 393
A549 = tested on: A549
UACC-62 = tested on: UACC-62
Malme-3M = tested on: Malme-3M
SNB-19 = tested on: SNB-19
HL-60 = tested on: HL-60
EKVX = tested on: EKVX
OVCAR-8 = tested on: OVCAR-8
HCT-116 = tested on: HCT-116
K562 = tested on: K562
OVCAR-5 = tested on: OVCAR-5
KM12 = tested on: KM12
NCI-H522 = tested on: NCI-H522

| SMILES | GI50 (NCI-H460) | GI50 (HOP-62) | GI50 (TK-10) | GI50 (ACHN) | GI50 (RXF 393) | GI50 (A549) | GI50 (UACC-62) | GI50 (Malme-3M) | GI50 (SNB-19) | GI50 (HL-60) | GI50 (EKVX) | GI50 (OVCAR-8) | GI50 (HCT-116) | GI50 (K562) | GI50 (OVCAR-5) | GI50 (KM12) | GI50 (NCI-H522) |
| --- | --- | --- | --- | --- | --- | --- | --- | --- | --- | --- | --- | --- | --- | --- | --- | --- | --- |
| CC1(C)CC2CC(CC(C)(C)C2=O)C1=O | > 100 µM (inactive) | > 100 µM (inactive) | > 100 µM (inactive) | > 100 µM (inactive) | > 100 µM (inactive) | > 100 µM (inactive) | > 100 µM (inactive) | > 100 µM (inactive) | > 100 µM (inactive) | > 100 µM (inactive) | > 100 µM (inactive) | > 100 µM (inactive) | > 100 µM (inactive) | > 100 µM (inactive) | > 100 µM (inactive) | > 100 µM (inactive) | – |
| CCOc1cccc2ccc[n+](CC)c12 | 75.7 µM (inactive) | > 100 µM (inactive) | > 100 µM (inactive) | > 100 µM (inactive) | > 100 µM (inactive) | 48.6 µM (inactive) | > 100 µM (inactive) | > 100 µM (inactive) | > 100 µM (inactive) | – | > 100 µM (inactive) | 25.2 µM (inactive) | 37.1 µM (inactive) | 25.1 µM (inactive) | > 100 µM (inactive) | 49.7 µM (inactive) | 16.4 µM (inactive) |
| O=C1N(c2ccccc2)C(=O)C2(SC=NN2Cc2ccccc2)N1c1ccccc1 (stereo not given) | > 100 µM (inactive) | > 100 µM (inactive) | > 100 µM (inactive) | > 100 µM (inactive) | > 100 µM (inactive) | > 100 µM (inactive) | > 100 µM (inactive) | > 100 µM (inactive) | > 100 µM (inactive) | 51.2 µM (inactive) | > 100 µM (inactive) | > 100 µM (inactive) | > 100 µM (inactive) | > 100 µM (inactive) | – | > 100 µM (inactive) | > 100 µM (inactive) |
| CNS(=O)(=O)NN(C)S(=O)(=O)c1ccc(OC)cc1 | – | > 100 µM (inactive) | > 100 µM (inactive) | > 100 µM (inactive) | 31 µM (inactive) | > 100 µM (inactive) | > 100 µM (inactive) | > 100 µM (inactive) | > 100 µM (inactive) | > 100 µM (inactive) | > 100 µM (inactive) | > 100 µM (inactive) | > 100 µM (inactive) | > 100 µM (inactive) | – | > 100 µM (inactive) | > 100 µM (inactive) |
| N#Cc1cn(-c2c3ccccc3nc3ccccc23)c(=O)[nH]c1=O | 3.55 µM (inactive) | – | 21.5 µM (inactive) | 4.19 µM (inactive) | – | 4.56 µM (inactive) | 15.8 µM (inactive) | 10.7 µM (inactive) | 22.2 µM (inactive) | 10.6 µM (inactive) | 18.2 µM (inactive) | 4.85 µM (inactive) | 3.95 µM (inactive) | 3.67 µM (inactive) | 13.8 µM (inactive) | 7.16 µM (inactive) | 4.03 µM (inactive) |
| CC(=O)c1cccc(NCn2nnc3ccccc32)c1 | > 100 µM (inactive) | > 100 µM (inactive) | > 100 µM (inactive) | > 100 µM (inactive) | > 100 µM (inactive) | > 100 µM (inactive) | > 100 µM (inactive) | > 100 µM (inactive) | > 100 µM (inactive) | 61 µM (inactive) | > 100 µM (inactive) | > 100 µM (inactive) | > 100 µM (inactive) | > 100 µM (inactive) | – | > 100 µM (inactive) | > 100 µM (inactive) |
| COC(=O)C1=C(O)c2cc(OC)c(OC)cc2C(c2ccc(OC)c(OC)c2)C1 (stereo not given) | 66.7 µM (inactive) | > 100 µM (inactive) | > 100 µM (inactive) | 77.3 µM (inactive) | > 100 µM (inactive) | > 100 µM (inactive) | 99.8 µM (inactive) | > 100 µM (inactive) | – | > 100 µM (inactive) | > 100 µM (inactive) | 93.1 µM (inactive) | 56.4 µM (inactive) | > 100 µM (inactive) | > 100 µM (inactive) | 76.9 µM (inactive) | – |
| Cc1ccc(S(=O)(=O)c2c3nc4ccccc4nc3n3c2[nH]c2ccccc23)cc1 | > 100 µM (inactive) | > 100 µM (inactive) | > 100 µM (inactive) | > 100 µM (inactive) | – | > 100 µM (inactive) | 25.7 µM (inactive) | > 100 µM (inactive) | > 100 µM (inactive) | > 100 µM (inactive) | > 100 µM (inactive) | > 100 µM (inactive) | > 100 µM (inactive) | > 100 µM (inactive) | > 100 µM (inactive) | 58.1 µM (inactive) | > 100 µM (inactive) |
| Cn1cnc([N+](=O)[O-])c1SC1=NCCS1 | > 100 µM (inactive) | > 100 µM (inactive) | > 100 µM (inactive) | 91 µM (inactive) | – | > 100 µM (inactive) | 51.2 µM (inactive) | 22 µM (inactive) | > 100 µM (inactive) | – | > 100 µM (inactive) | > 100 µM (inactive) | 50 µM (inactive) | 28 µM (inactive) | > 100 µM (inactive) | > 100 µM (inactive) | 16.7 µM (inactive) |
| COc1ccc2c3c1C(=O)CCC3CO2 (stereo not given) | > 100 µM (inactive) | > 100 µM (inactive) | > 100 µM (inactive) | > 100 µM (inactive) | – | > 100 µM (inactive) | > 100 µM (inactive) | > 100 µM (inactive) | > 100 µM (inactive) | > 100 µM (inactive) | 91 µM (inactive) | > 100 µM (inactive) | > 100 µM (inactive) | > 100 µM (inactive) | > 100 µM (inactive) | > 100 µM (inactive) | > 100 µM (inactive) |
| C=C(CN(C)C)C(=O)c1ccc(C(=O)C(=C)CN(C)C)cc1 | > 100 µM (inactive) | – | > 100 µM (inactive) | > 100 µM (inactive) | > 100 µM (inactive) | 35.2 µM (inactive) | > 100 µM (inactive) | > 100 µM (inactive) | > 100 µM (inactive) | > 100 µM (inactive) | > 100 µM (inactive) | > 100 µM (inactive) | > 100 µM (inactive) | > 100 µM (inactive) | > 100 µM (inactive) | > 100 µM (inactive) | > 100 µM (inactive) |
| Nc1ccc(C(=O)NN2C(=O)C(Cl)C2c2ccccc2Cl)cc1 (stereo not given) | 4.45 µM (inactive) | 20.3 µM (inactive) | 16.5 µM (inactive) | 16.4 µM (inactive) | 5.48 µM (inactive) | 14.3 µM (inactive) | 8.69 µM (inactive) | 17.6 µM (inactive) | 16.9 µM (inactive) | 1.02 µM (active) | 17.5 µM (inactive) | 3.24 µM (inactive) | 4.21 µM (inactive) | – | 15.2 µM (inactive) | 12.1 µM (inactive) | 1.71 µM (inactive) |
| Cc1cc(=O)c2c(O)cc3c(c2o1)CC=C(COC1OC(COC2OC(CO)C(O)C(O)C2O)C(O)C(O)C1O)CO3 (stereo not given) | > 100 µM (inactive) | > 100 µM (inactive) | > 100 µM (inactive) | > 100 µM (inactive) | – | > 100 µM (inactive) | > 100 µM (inactive) | > 100 µM (inactive) | > 100 µM (inactive) | – | > 100 µM (inactive) | > 100 µM (inactive) | > 100 µM (inactive) | > 100 µM (inactive) | > 100 µM (inactive) | > 100 µM (inactive) | > 100 µM (inactive) |
| N#CC(c1ccc(Cl)cc1)c1cccc(C(C#N)c2ccc(Cl)cc2)n1 (stereo not given) | 23.1 µM (inactive) | 93.8 µM (inactive) | 7.29 µM (inactive) | 10.8 µM (inactive) | – | 10.6 µM (inactive) | 14 µM (inactive) | 30.6 µM (inactive) | 26.5 µM (inactive) | 12.1 µM (inactive) | 25 µM (inactive) | 55.1 µM (inactive) | – | 6.35 µM (inactive) | > 100 µM (inactive) | 17.6 µM (inactive) | 17.6 µM (inactive) |
| Cc1cc2c(=O)cc(-c3ccc(F)cc3)oc2c(C(=O)O)c1C | > 100 µM (inactive) | – | > 100 µM (inactive) | > 100 µM (inactive) | > 100 µM (inactive) | > 100 µM (inactive) | > 100 µM (inactive) | > 100 µM (inactive) | > 100 µM (inactive) | – | > 100 µM (inactive) | > 100 µM (inactive) | > 100 µM (inactive) | > 100 µM (inactive) | > 100 µM (inactive) | > 100 µM (inactive) | > 100 µM (inactive) |
| C[C@@H](c1ccccc1)N(CC#N)C1CCC[C@H]1O (stereo not given in full) | > 100 µM (inactive) | > 100 µM (inactive) | > 100 µM (inactive) | > 100 µM (inactive) | > 100 µM (inactive) | > 100 µM (inactive) | > 100 µM (inactive) | > 100 µM (inactive) | > 100 µM (inactive) | > 100 µM (inactive) | > 100 µM (inactive) | > 100 µM (inactive) | > 100 µM (inactive) | > 100 µM (inactive) | – | > 100 µM (inactive) | > 100 µM (inactive) |
| C[C@@]12CCCC(=O)N1[C@@H](CO)C(c1ccccc1)O2 (stereo not given in full) | > 100 µM (inactive) | > 100 µM (inactive) | > 100 µM (inactive) | > 100 µM (inactive) | > 100 µM (inactive) | > 100 µM (inactive) | > 100 µM (inactive) | > 100 µM (inactive) | > 100 µM (inactive) | – | > 100 µM (inactive) | > 100 µM (inactive) | > 100 µM (inactive) | > 100 µM (inactive) | > 100 µM (inactive) | > 100 µM (inactive) | – |
| CN1C2C=C(c3ccccc3)CC1CC2 (stereo not given) | > 100 µM (inactive) | – | > 100 µM (inactive) | > 100 µM (inactive) | > 100 µM (inactive) | > 100 µM (inactive) | > 100 µM (inactive) | > 100 µM (inactive) | > 100 µM (inactive) | > 100 µM (inactive) | > 100 µM (inactive) | > 100 µM (inactive) | > 100 µM (inactive) | > 100 µM (inactive) | > 100 µM (inactive) | > 100 µM (inactive) | > 100 µM (inactive) |
